Experimental findings from patent publication US6774145B1, “Material separated from Ecklonia cava, method for extracting and purifying the same, and use thereof as antioxidants” (Ventree Co., Ltd, priority 2000, dated 2004) are described below.

Series [1] can be described thus: DPPH radical scavenging activity (Blois method). The settings on record: reacted 10 min, absorbance at 517 nm. It is filed as biochemical. How it is done: (§1) The antioxidative activity of the novel compound obtained through the extraction and purification process is evaluated by measuring its radical scavenging activity against 1,1-diphenyl-2-picrylhydrazyl (DPPH), which has free radicals attached thereto, according to the Blois method. A thermal stability of the compound of interest can be evaluated by measuring its antioxidative activity at plural temperature points.
(§2) Dicaval A and Dicaval B obtained in Example 3 were measured for antioxidative activity according to the Blois method. For this, an examination was made of the radical scavenging activity of the two compounds against 1,1-diphenyl-2-picrylhydrazyl (DPPH) to which free radicals were attached. First, 20 mg of DPPH was dissolved in 150 ml of ethanol to prepare a DPPH solution. To 600 μl of the DPPH solution was added with 250 μl of dimethylsulfoxide (DMSO), diluted with an appropriate amount of ethanol and shaken for 10 seconds, after which this control was adjusted, in absorbance at 517 nm, from 0.94 to 0.97. To 1 ml of the DPPH solution which was adjusted from 0.94 to 0.97 likewise, each of the samples (μg to mg) was added and then, reacted for 10 min, followed by measuring the absorbance of the solution. The antioxidative activity of each of the samples was determined by the DPPH radical scavenging activity which was represented by a reduced absorbance compared with that of the control.
The antioxidative activity was compared between the conventional antioxidants and the compounds of the invention and the results are given in Table 1, below.
(The DPPH test is a chemical assay of radical scavenging.)

Series [2] can be described thus: Thermal stability: antioxidative activity after heating for 1 hour. Format: physicochemical. How it is done: as §1, §2
50 μg of each of Dicaval A and Dicaval B obtained in Example 3 was heated at 40° C., 60° C., 80° C., and 100° C. for 1 hour to measure antioxidative activity.

Setting [3] is: 50 μg heated at 40° C. for 1 hour.
[4] abbreviates: 50 μg heated at 60° C. for 1 hour.
Setting [5] is: 50 μg heated at 80° C. for 1 hour.
The mark [6] stands for this setting: 50 μg heated at 100° C. for 1 hour.

Consider `O=C1O[C@H]([C@@H](O)CO)C(O)=C1O` [Ascorbic acid, reference compound], for which the “antioxidative activity (DPPH radical scavenging activity)” value (“antioxidative activity” for short) in series [1] (sample amount 10 μg), in series [1] (sample amount 20 μg) and in series [1] (sample amount 100 μg) was 100% throughout.

With `Oc1cc(O)c(Oc2c(O)cc(Oc3c(O)cc4c(oc5c(O)c(Oc6cc(O)c(Oc7c(O)cc(O)cc7O)c(O)c6)c(O)cc54)c3O)cc2O)c(O)c1` [Dicaval B], the “Antioxidativity (Absorb. change)” value in series [2] (setting [3]) was 0.88; in series [2] (setting [4]), 0.88; in series [2] (setting [5]), 0.87; in series [2] (setting [6]), 0.89. For the same compound, the “Thermal stability (Notes)” value in series [2] (setting [3]), in series [2] (setting [4]), in series [2] (setting [5]) and in series [2] (setting [6]) was “Stable” in each case. For the same compound, the “antioxidative activity” value in series [1] (sample amount 10 μg), in series [1] (sample amount 20 μg) and in series [1] (sample amount 100 μg) was 100% in each case.

In the case of `Oc1cc(O)c(Oc2c(O)cc(Oc3cc4oc5c(O)c(Oc6cc(O)c(Oc7c(O)cc(O)cc7O)c(O)c6)c(O)cc5c4cc3O)cc2O)c(O)c1` [Dicaval A], the “Antioxidativity (Absorb. change)” value stood at 0.87 in series [2] (setting [3]), 0.89 in series [2] (setting [4]), 0.88 in series [2] (setting [5]) and 0.90 in series [2] (setting [6]). Further, the “Thermal stability (Notes)” value in series [2] (setting [3]), in series [2] (setting [4]), in series [2] (setting [5]) and in series [2] (setting [6]) was “Stable” in each case. Moreover, the “antioxidative activity” value in series [1] (sample amount 10 μg), in series [1] (sample amount 20 μg) and in series [1] (sample amount 100 μg) was 100% each time.
